# According to patent US12318365B2, “Inhibition of dipeptide repeat proteins” (ALS Therapy Development Institute, priority 2019, dated 2025):
# “Also recorded” adds a separate entry of the source.
# Assays:
# NSC-34 cells = experiment: LDH assay (cytotoxicity) in NSC-34 cells; type: cell-based; settings: for toxicity independently of GR and PR treatment: no DRP
# Source text: LDH Assay: The LDH assay is a colorimetric assay that measures cell toxicity and death. […] When cells lose membrane integrity, an enzyme found in living cells called lactate dehydrogenase (LDH) is released into the solution surrounding the dying cell. A form of programmed cell death, apoptosis, as well as other forms of cell death also ultimately lead to a cell's membrane being destroyed, resulting in a large release of LDH into the extracellular space. Thus, LDH is an excellent marker not only for necrosis, but for all instances of cell death. In an LDH assay, a sample of the solution surrounding the cell is isolated, and transferred to a plate containing an LDH reaction mixture. This reaction mixture contains a tetrazolium salt intermediate and other reaction constituents that, when exposed to LDH, convert the tetrazolium salt into a colored Formazan product. This Formazan product can be quantified spectrophotometrically. Greater absorbance readings correspond to more cell death.
# One row on the top and bottom of the plate, and two columns on either side of the plate, were left without cells and contained culture medium only to minimize experimental well volume evaporation. After plating, cells were incubated for 24 h at 37° C., 5% CO2 prior to DRP and/or PRMT inhibitor addition. At time of DRP/PRMT inhibitor addition, desired doses of DRP for challenge and inhibitor for treatment were achieved by diluting aliquots of each stock in warm culture medium. During experiments where both PRMT inhibitors and DRPs were used, PRMT inhibitors were always applied to wells first, and followed by DRP application. […] Inhibitor toxicity controls were included as wells treated with the desired doses of drug for the experiment, but no DRP. DRP toxicity controls were included as wells only treated with the doses of DRP used for challenge. Once dosed, plates were incubated for 24 h at 37° C., 5% CO2 prior to running the WST-1 or LDH assay endpoints. Additional controls needed for each endpoint are specified in the “WST-1 Assay” and “LDH Assay” sections of these methods.
# LDH Assay: Cells were plated and prepared using the steps described in the “Plating NSC-34 and Dosing with DRPs and PRMT Inhibitors” section of these methods. Other controls for this experiment included several sets of wells with only cells in culture medium (one triplicate designated for “untreated,” one triplicate designated for “lysed” positive control), and wells with culture medium only. An additional control added only to the transfer plate at time of testing was 5 μL LDH only. Testing was performed using colorimetric LDH-Cytotoxicity Assay Kit II (Abcam, Cambridge, MA, USA) per manufacturer's instructions. Final read at 450 nm was performed on a SpectraMax M3 Microplate Reader (Molecular Devices, San Jose, CA, USA). Data analysis included calculation of % LDH release using the following equation: […]
# Experiments included three replicates per condition. Each experiment was repeated twice (executed three times total).
# (§1) The following conditions were plated in triplicate.
# Plates were incubated for 24 h at 37° C., 5% CO2. Cells were tested and data were analyzed by LDH assay.
# Cells were plated in culture medium in 2 96-well plates at a density of 3.7×10^4 cells per well, and incubated overnight at 37° C., 5% CO2.
# as §1
# Cells were plated in culture medium in 2 96-well plates at a density of 3.7×10^4 cells per well, and incubated overnight at 37° C., 5% CO2. […]
# The following conditions were plated in triplicate. […]
# [1] = tested on: asymmetrical arginine methylation of NSC-34 cells; experiment: Cellular asymmetric arginine methylation (800/700 fluorescence readout) in NSC-34 cells; type: cell-based, Mouse; settings: 24 hour treatment
# Protocol: On Day 0, NSC-34 Cells were plated in 48 wells of a 96 well plate, and CHO cells were plated in the other 48 wells of the same 96-well plate. NSC-34 cells were plated in DMEM/High glucose media. CHO cells were plated in Ham's F-12K (Kaighn's) Medium. Both cell lines were incubated overnight to reach approximately 50% confluency.
# On Day 1, 24 wells of the NSC-34 cells and 24 wells of the CHO cells were treated with the following concentrations of MS023: 1 μM, 3 μM, 6 μM, 10 μM, 30 μM, and 60 μM. The cells were then incubated overnight.
# On Day 2, 18 wells of the untreated NSC-34 cells and 18 wells of the untreated CHO cells were treated with the same concentrations of MS023 as those on Day 1. This left 6 wells of each cell line that never received MS023. Once MS023 was added, the cells were incubated overnight.
# On Day 3, all media in the 96-well plate was removed and the cells were fixed with 3.7% Paraformaldehyde (PFA). Cells were then washed and permeabilized with 1×PBS/0.1% Triton X-100.
# After removing the PBS/Triton wash, Odyssey Blocking Buffer (LI-COR, 927-40100) was applied to all wells and the plate sat at room temperature with moderate shaking for 90 minutes. After 90 minutes, the blocking buffer was removed and the cells were treated with a 1:500 dilution of the Anti-Asymmetric Di-Methyl Arginine Motif primary antibody (Cell Signaling Technology, #13522). Incubation with the primary antibody continued overnight at 4 degrees Celsius with no shaking.
# On Day 4, the primary antibody solution was removed from the plate, and the cells were washed with 1×PBS/0.1% Tween 20. After washing, cells were given a secondary antibody mixture containing a 1:1000 dilution of IRDye 800 CW Anti-Rabbit antibody (LI-COR, 926-32211) and a 1:500 dilution of Cell Tag 700 Stain (LI-COR, 926-41090). The secondary antibody mixture remained on cells for 60 minutes with gentle shaking and protected from light.
# (§2) After 60 minutes, the secondary antibody mixture was removed and the cells were again washed with 1×PBS/0.1% Tween 20. All wash buffer was then removed, and the plate was gently patted dry to remove excess solution. The plate was then read on the LI-COR Odyssey Classic Imaging System which provides results based on fluorescence. In this experiment, fluorescence occurred as a result of cellular, asymmetric arginine methylation. MS023 was given to cells for either 24 or 48 hours, with expectation for it to reduce cellular, asymmetric arginine methylation. Cell number per well was accounted for using the Cell Tag 700 Stain, which fluorescently labels total protein levels in a cell. To this effect, fluorescence from asymmetrical arginine methylation per well (800) was divided by fluorescence from the total protein level per well (700) to produce an outcome of 800/700.
# On Day 1, 24 wells of the NSC-34 cells and 24 wells of the CHO cells were treated with the following concentrations of MS049: 0.2 μM, 1 μM, 2 μM, 10 μM, 20 μM, and 100 μM. The cells were then incubated overnight.
# On Day 2, 18 wells of the untreated NSC-34 cells and 18 wells of the untreated CHO cells were treated with the same concentrations of MS049 as those on Day 1. This left 6 wells of each cell line that never received MS049. Once MS049 was added, the cells were incubated overnight.
# as §2, with “MS049” for “MS023”, “To this effect, fluorescence from asymmetrical arginine methylation per well (800) was divided by fluorescence from the total protein level per well (700) to produce an outcome of 800/700.” left out
structure (smiles),measurement,setting,value
CNCCN1CCC(OCc2ccccc2)CC1 [MS049],dose dependence of abrogation of GR15-induced cytotoxicity,"NSC-34 cells; 3 μM GR15, 24 h, dose range of the example",dose-dependently abrogated
same,abrogation of GR-induced toxicity,"NSC-34 cells; 3 μM GR15, 24 h, doses 0.2, 1, 2, 20 and 100 μM",partially abrogated
same,abrogation of GR-induced toxicity,"NSC-34 cells; 3 μM GR15, 24 h, doses 2 and 10 μM",completely abrogated
same,abrogation of GR15-induced cytotoxicity,"NSC-34 cells; 3 μM GR15, doses 1 and 20 μM",partially abrogated
same,dose dependence of abrogation of PR15-induced cytotoxicity,"NSC-34 cells; 3 μM PR15, 24 h, dose range of the example",dose-dependently abrogated
same,abrogation of PR-induced toxicity,"NSC-34 cells; 3 μM PR15, 24 h, doses 0.2, 1, 2, 20 and 100 μM",partially abrogated
same,abrogation of PR-induced toxicity,"NSC-34 cells; 3 μM PR15, 24 h, doses 2 and 10 μM",completely abrogated
same,abrogation of PR15-induced cytotoxicity,"NSC-34 cells; 3 μM PR15, doses 1 and 20 μM",partially abrogated
same,toxicity independently of GR and PR treatment,NSC-34 cells; doses 100 and 20 μM,did cause significant toxicity; also recorded: did cause significant cytotoxicity
same,toxicity independently of GR and PR treatment,"NSC-34 cells; other doses tested (0.2, 1, 2, 10 μM)",not at other doses tested
same,decrease of asymmetrical arginine methylation,"[1]; 1 μM, vs untreated cells",approximately 17%
same,decrease of asymmetrical arginine methylation,[1]; 100 μM,~39%
